{
  "source": "patent US6605642B2",
  "about": "“Inhibitors of formation of advanced glycation endproducts (AGES)” (City of Hope, priority 1999, dated 2003)",
  "format_in_all_cases": "biochemical",
  "key": {"[1]": {"target": "T1, hemoglobin (HbA1C formation) (Homo sapiens, UniProt P68871+P69905)", "T1 construct": "δ-Glu, an oxidized analogue of glucose, can react rapidly with hemoglobin within the red cells; from tissue; host or cells: fresh whole blood (red blood cells) from normal volunteers", "T1 sequence (P68871 2-147 limits assumed)": "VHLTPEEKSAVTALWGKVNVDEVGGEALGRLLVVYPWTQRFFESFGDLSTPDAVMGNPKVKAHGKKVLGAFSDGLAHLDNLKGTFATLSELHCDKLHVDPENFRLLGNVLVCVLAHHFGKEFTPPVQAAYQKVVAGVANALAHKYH", "T1 sequence (P69905 2-142 limits assumed)": "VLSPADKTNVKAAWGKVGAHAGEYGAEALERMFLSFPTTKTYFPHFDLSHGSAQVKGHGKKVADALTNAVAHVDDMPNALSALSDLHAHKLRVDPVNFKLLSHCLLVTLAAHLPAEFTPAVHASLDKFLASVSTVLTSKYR", "test": "Hemoglobin-δ-Gluconolactone (δ-Glu) assay, early stage glycation", "conditions": "1 millimole/L inhibitor, δ-Glu treated whole blood, 16 hours at 37° C.", "protocol": "The δ-Glu assay is a specific method for investigation of inhibitors of the early stage of glycation. Evaluation of early glycation products (Amadori) formation on hemoglobin (HbA1C) is performed by incubating red blood cells with an oxidized form of glucose in the presence and the absence of the inhibitor compound followed by determination of HbA1C in the test versus the control (Rahbar and Nadler., 1999). […] By contrast, glucose requires weeks for an equivalent reaction to occur. We have used this finding to devise an assay method to measure early stage glycation of hemoglobin (Amadori product) and an assay to evaluate the ability of an inhibitor to inhibit HbA1C formation. Briefly, fresh blood was drawn in potassium-EDTA and prepared for incubation within 30 minutes of collection by mixing 200 μL of blood with 40 μL of either phosphate buffered-saline (PBS), pH 7.4, alone, PBS containing 50 millimoles/L δ-Glu (Sigma), or PBS containing 50 millimoles/L δ-Glu plus 1 millimole/L inhibitor. After incubation for 16 hours at 37° C., the percentage of glycated hemoglobin present was determined. The percentage of glycated Hb (HbA1C) was determined using a dedicated ion-exchange HPLC system (BIORAD DIAMAT). Blood samples were analyzed in triplicate. The % inhibition of HbA1C formation by the compound was calculated according to the following formula: […]\nwhere A is HbA1C concentration in the baseline control tube not treated with δ-Glu, B is the HbA1C concentration in blood incubated with δ-Glu, C is the HbA1C content of the test tube treated both with δ-Glu and the inhibitor compound.\nThe amount of (HbA1C) formation using δ-Glu treated whole blood from normal volunteers using 1 millimole/L of the compounds is shown in FIG. 1. Levels of HbA1C in the δ-Glu treated blood is twice as high as the baseline control. Various inhibitors (compounds LR93-LR102) show different levels of HbA1C depending on their inhibitory potencies."}, "[2]": {"tested_on": "G.K. peptide", "test": "N-Acetyl-Glycyl-Lysine Methyl Ester (G.K. Peptide)-Ribose assay", "conditions": "24 hours at 37° C., fluorescence 330/415 nm; for Percent Inhibition in the G.K.-Ribose Assay: 1 millimole/L inhibitor", "protocol": "Evaluation of the late glycation products (AGEs), and AGE-inhibition by the new inhibitor compounds was tested by incubation of G.K. peptide in ribose in the presence or the absence of the agent, followed by determination of chromophores generated in the course of glycation and AGE formation through determination of their specific fluorescence. The Nagaraj et al. (1996) method used to evaluate the ability of the compounds of the present invention to inhibit the crosslinking of N-acetylglycyl-lysine methyl ester in the presence of ribose was as follows: Stock Solutions: 0.5 M sodium phosphate buffer pH 7.4 containing NaN3 0.2 g/L GK peptide (Sigma) 80 mg/mL in 0.5 M sodium phosphate buffer pH 7.4 Ribose 800 mM (120 mg/mL) in 0.5 M phosphate buffer Triplicate samples of equal volumes (0.1 mL) of the 3 stock solutions were mixed together, filtered through a 0.2 micron filter (Corning) and incubated under aseptic conditions for 24 hours at 37° C. The inhibitor compounds were added to a final concentration of 1 millimole/L. At the end of the incubation period, samples were analyzed for their specific fluorescence (excitation, 330 nm; emission, 415 nm). The % inhibition by different concentrations of inhibitor was calculated as described above. Aminoguanidine was used at 50 mM as a positive control. […] The results of this assay indicate that all ten compounds investigated here have strong inhibitory effects and block specific fluorescence of proteins AGE in these separate determinations."}, "[3]": {"target": "T2, BSA (Bos taurus, UniProt P02769)", "T2 construct": "BSA (fraction V, essentially fatty acid free, low endotoxin) from Sigma; purchased Sigma", "T2 sequence (P02769 25-607)": "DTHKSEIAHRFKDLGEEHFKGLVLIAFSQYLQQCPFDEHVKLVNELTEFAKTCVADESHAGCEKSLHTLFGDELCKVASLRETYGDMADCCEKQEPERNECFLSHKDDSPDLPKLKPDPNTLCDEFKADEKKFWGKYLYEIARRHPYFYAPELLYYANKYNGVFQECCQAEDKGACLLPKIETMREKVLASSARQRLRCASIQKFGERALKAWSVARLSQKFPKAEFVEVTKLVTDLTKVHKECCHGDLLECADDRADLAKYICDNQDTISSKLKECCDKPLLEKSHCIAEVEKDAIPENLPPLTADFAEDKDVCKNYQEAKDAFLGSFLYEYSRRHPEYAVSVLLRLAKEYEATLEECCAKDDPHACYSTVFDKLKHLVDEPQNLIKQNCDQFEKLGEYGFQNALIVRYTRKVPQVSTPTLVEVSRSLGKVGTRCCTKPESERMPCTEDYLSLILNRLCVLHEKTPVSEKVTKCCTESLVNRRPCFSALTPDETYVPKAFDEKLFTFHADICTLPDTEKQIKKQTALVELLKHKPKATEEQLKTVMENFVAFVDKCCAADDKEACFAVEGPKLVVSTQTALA", "test": "BSA-Glucose assay, glucose-mediated development of fluorescence of BSA", "conditions": "7 days at 37° C., fluorescence 330/410 nm; for Percent Inhibition in the BSA-Glucose Assay: 1 millimole/L inhibitor", "protocol": "This test is used to evaluate the ability of the inhibitors to inhibit glucose-mediated development of fluorescence of BSA (Ikeda et al., 1996). Triplicate samples of BSA (fraction V, essentially fatty acid free, low endotoxin) from Sigma 50 mg/mL and 800 mM glucose (144 mg/mL) in […] phosphate buffer pH 7.4 containing NaN3 0.2 g/L was incubated under aseptic conditions at 37° C. for 7 days in the presence or absence of various concentrations of the compounds. After 7 days of incubation each sample was examined for the development of specific fluorescence (excitation, 330 nm; emission, 410 nm). The % inhibition of AGE formation in the test sample versus control was calculated for each inhibitor compound. Aminoguanidine (50 mM) was used as a positive control.\nThis assay method is mostly for the inhibitors of late glycation and AGE formation (post-Amadori). The results obtained by this assay show all ten compounds investigated here have strong inhibitory effects on post-Amadori glycation, AGE formation and AGE crosslinking."}, "[4]": {"target": "T3, collagen-AGE-BSA crosslinking (Bos taurus, UniProt P02769)", "T3 construct": "purchased Becton Dickinson", "T3 sequence (P02769 25-607)": "as above", "test": "ELISA assay, crosslinking of AGE-BSA to rat tail-tendon-collagen coated plate", "conditions": "for Inhibition of AGE-protein crosslinking (in words): ELISA, FIGS. 4A-C, 0.1-0.5 mM; for Effectiveness relative to pyridoxamine, inhibition of AGE-protein-crosslinking: compared with pyridoxamine (Khalifah et al., 1999)", "protocol": "A special ELISA technique (Al-abed et al., 1999) was used to evaluate the ability of the compounds being studied to inhibit the crosslinking of glycated-BSA (AGE-BSA) to a rat tail-tendon-collagen coated 96 well plate (Biocoat Cell Environment, Becton Dickinson). Crosslinking of AGE-BSA to a rat tail-tendon-collagen coated plate was performed with and without the testing compound at the desired concentrations. The uncross-linked AGE-BSA was then removed by washing the wells. The AGE-BSA crosslinked to the tail-tendon-collagen coated plate was then quantified by a polyclonal antibody raised against AGE-RNase in our laboratory. Positive results in the assay indicate that the inhibitor is capable of reducing the amount of AGE-BSA which crosslinks with collagen. Aminoguanidine was used as positive control."}},
  "data": [
    {"smiles": "N=C(N)NN", "note": "[AG, aminoguanidine, reference compound]", "values": [
      {"measurement": "Percent Inhibition of HbA1c formation in the δ-Glu Assay", "setting": "[1]", "result": 12.1, "unit": "%"},
      {"measurement": "Percent Inhibition in the G.K.-Ribose Assay (positive control)", "setting": "[2]; aminoguanidine 50 mM", "result": 67, "unit": "%"},
      {"measurement": "inhibition at 50000 µM", "setting": "[3]; aminoguanidine 50 mM, read-out: Percent Inhibition in the BSA-Glucose Assay (positive control)", "result": 74, "unit": "%"}
    ]},
    {"smiles": "CC(C)(Oc1ccc(Cl)cc1)C(=O)NC1(C(=O)O)CCCCC1", "note": "[LR93]", "values": [
      {"measurement": "Percent Inhibition of HbA1c formation in the δ-Glu Assay", "setting": "[1]", "result": 49.2, "unit": "%"},
      {"measurement": "Percent Inhibition in the G.K.-Ribose Assay", "setting": "[2]", "result": 42.8, "unit": "%"},
      {"measurement": "Percent Inhibition in the BSA-Glucose Assay", "setting": "[3]", "result": 35, "unit": "%"}
    ]},
    {"smiles": "CC(C)(Oc1ccc(NC(=O)Nc2cc(Cl)cc(Cl)c2)cc1)C(=O)N1CCCCC1C(=O)O", "note": "(stereo not shown) [LR94]", "values": [
      {"measurement": "Percent Inhibition of HbA1c formation in the δ-Glu Assay", "setting": "[1]", "result": 28.5, "unit": "%"},
      {"measurement": "Percent Inhibition in the G.K.-Ribose Assay", "setting": "[2]", "result": 33.7, "unit": "%"},
      {"measurement": "Percent Inhibition in the BSA-Glucose Assay", "setting": "[3]", "result": 26.8, "unit": "%"}
    ]},
    {"smiles": "CC(C)C[C@H](NC(=O)C(C)(C)Oc1ccc(NC(=O)Nc2cc(Cl)cc(Cl)c2)cc1)C(=O)O", "note": "[LR95]", "values": [
      {"measurement": "Percent Inhibition of HbA1c formation in the δ-Glu Assay", "setting": "[1]", "result": 61.9, "unit": "%"},
      {"measurement": "Percent Inhibition in the G.K.-Ribose Assay", "setting": "[2]", "result": 29.5, "unit": "%"},
      {"measurement": "Percent Inhibition in the BSA-Glucose Assay", "setting": "[3]", "result": 34, "unit": "%"}
    ]},
    {"smiles": "COC(=O)CC[C@H](NC(=O)C(C)(C)Oc1ccc(NC(=O)Nc2cc(Cl)cc(Cl)c2)cc1)C(=O)O", "note": "[LR96]", "values": [
      {"measurement": "Inhibition of AGE-protein crosslinking (in words)", "setting": "[4]", "result": "strong inhibitors of AGE-protein crosslinking"},
      {"measurement": "Effectiveness relative to pyridoxamine, inhibition of AGE-protein-crosslinking", "setting": "[4]", "result": "2 to 3", "unit": "times"},
      {"measurement": "Percent Inhibition of HbA1c formation in the δ-Glu Assay", "setting": "[1]", "result": 57.1, "unit": "%"},
      {"measurement": "Percent Inhibition in the G.K.-Ribose Assay", "setting": "[2]", "result": 42.4, "unit": "%"},
      {"measurement": "Percent Inhibition in the BSA-Glucose Assay", "setting": "[3]", "result": 30, "unit": "%"}
    ]},
    {"smiles": "CC(C)(Oc1ccc(NC(=O)Nc2cc(Cl)cc(Cl)c2)cc1)C(=O)NCCCC(=O)O", "note": "[LR97]", "values": [
      {"measurement": "Percent Inhibition of HbA1c formation in the δ-Glu Assay", "setting": "[1]", "result": 36.5, "unit": "%"},
      {"measurement": "Percent Inhibition in the G.K.-Ribose Assay", "setting": "[2]", "result": 33.3, "unit": "%"},
      {"measurement": "Percent Inhibition in the BSA-Glucose Assay", "setting": "[3]", "result": 26.2, "unit": "%"}
    ]},
    {"smiles": "CC(C)(Oc1ccc(NC(=O)Nc2cc(Cl)cc(Cl)c2)cc1)C(=O)NCC(=O)O", "note": "[LR98]", "values": [
      {"measurement": "Percent Inhibition of HbA1c formation in the δ-Glu Assay", "setting": "[1]", "result": 42.8, "unit": "%"},
      {"measurement": "Percent Inhibition in the G.K.-Ribose Assay", "setting": "[2]", "result": 37.3, "unit": "%"},
      {"measurement": "Percent Inhibition in the BSA-Glucose Assay", "setting": "[3]", "result": 26.7, "unit": "%"}
    ]},
    {"smiles": "CC(C)(Oc1ccc(NC(=O)Nc2cc(Cl)cc(Cl)c2)cc1)C(=O)Nc1ccc(C(=O)O)cc1", "note": "[LR99]", "values": [
      {"measurement": "Inhibition of AGE-protein crosslinking (in words)", "setting": "[4]", "result": "strong inhibitors of AGE-protein crosslinking"},
      {"measurement": "Effectiveness relative to pyridoxamine, inhibition of AGE-protein-crosslinking", "setting": "[4]", "result": "2 to 3", "unit": "times"},
      {"measurement": "Percent Inhibition of HbA1c formation in the δ-Glu Assay", "setting": "[1]", "result": 53.9, "unit": "%"},
      {"measurement": "Percent Inhibition in the G.K.-Ribose Assay", "setting": "[2]", "result": 39.5, "unit": "%"},
      {"measurement": "Percent Inhibition in the BSA-Glucose Assay", "setting": "[3]", "result": 30.9, "unit": "%"}
    ]},
    {"smiles": "CC(C)(Oc1ccc(NC(=O)Nc2cc(Cl)cc(Cl)c2)cc1)C(=O)NC1(C(=O)O)CCCC1", "note": "[LR100]", "values": [
      {"measurement": "Percent Inhibition of HbA1c formation in the δ-Glu Assay", "setting": "[1]", "result": 52.4, "unit": "%"},
      {"measurement": "Percent Inhibition in the G.K.-Ribose Assay", "setting": "[2]", "result": 28.5, "unit": "%"},
      {"measurement": "Percent Inhibition in the BSA-Glucose Assay", "setting": "[3]", "result": 31.9, "unit": "%"}
    ]}
  ]
}
